Measured values as given in patent US9204653B2, “5-fluoro pyrimidine derivatives” (DOW AGROSCIENCES LLC, priority 2008, dated 2015).
Where two headings read alike, the source gives them in different places.

Tested on: Mycosphaerella graminicola; Anamorph: Septoria tritici; Bayer Code SEPTTR
Assay: Leaf blotch of wheat, foliar fungicide treatment, one day protectant (1DP) or three day curative (3DC)
Assay type: in vivo, Septoria tritici on wheat plants (variety Yuma)
Conditions: Zymoseptoria tritici, rating of percent disease control
[1] = 24 h, one day protectant (1DP), read-out: SETTTR 1DP 25 ppm
[2] = 24 h, one day protectant (1DP), read-out: SEPTTR 1DP 100 ppm
[3] = 72 h, three day curative (3DC), read-out: SEPTTR 3DC 25 ppm
[4] = 72 h, three day curative (3DC), read-out: SEPTTR 3DC 100 ppm

SMILES | pest or weed control at 25 ppm [1] [%] | pest or weed control at 100 ppm [2] [%] | pest or weed control at 25 ppm [3] [%] | pest or weed control at 100 ppm [4] [%]
CC(C)c1ccc(COc2ncc(F)c(N)n2)cc1 [Compound 197] | 51 to 75 | 76 to 100 | 51 to 75 | 76 to 100
CCOC(=O)COC(=O)Nc1nc(OCc2cccc(F)c2)ncc1F [Compound 199] | 0 to 25 | 76 to 100 | 51 to 75 | 76 to 100
COc1ccc(COc2ncc(F)c(NSc3ccccc3[N+](=O)[O-])n2)cc1F [Compound 200] | 0 to 25 | 26 to 50 | 0 to 25 | 0 to 25
COc1cccc(COc2ncc(F)c(NC(=O)NCc3ccccc3F)n2)c1 [Compound 201] | 0 to 25 | 0 to 25 | 0 to 25 | 0 to 25
Fc1ccc(COc2ncc(F)c(NC3CCCCC3)n2)cc1 [Compound 205] | 0 to 25 | 0 to 25 | 0 to 25 | 51 to 75
Cc1ccc(COc2ncc(F)c(NC(=O)Nc3ccccc3F)n2)cc1 [Compound 208] | 0 to 25 | 0 to 25 | 0 to 25 | 26 to 50
Nc1nc(OCc2ccc(F)c(F)c2)ncc1F [Compound 210] | 76 to 100 | 76 to 100 | 76 to 100 | 76 to 100
Nc1nc(OCc2cccc(I)c2)ncc1F [Compound 212] | 76 to 100 | 76 to 100 | 76 to 100 | 76 to 100
Nc1nc(OCc2cccs2)ncc1F [Compound 213] | 76 to 100 | 76 to 100 | 76 to 100 | 76 to 100
COc1ccc(COc2ncc(F)c(NCO)n2)cc1F [Compound 216] | 76 to 100 | 76 to 100 | 51 to 75 | 76 to 100
Nc1nc(OCC2Cc3ccccc3O2)ncc1F (stereo not shown) [Compound 219] | 51 to 75 | 76 to 100 | 0 to 25 | 51 to 75
O=C(Nc1nc(OCc2ccc(F)cc2)ncc1F)OCc1ccccc1 [Compound 220] | 76 to 100 | 76 to 100 | 76 to 100 | 76 to 100
COc1ccccc1Oc1ncc(F)c(N)n1 [Compound 223] | 76 to 100 | 76 to 100 | 76 to 100 | 76 to 100
COc1ccc(Br)c(COc2ncc(F)c(N)n2)c1F [Compound 224] | 26 to 50 | 76 to 100 | 0 to 25 | 26 to 50
CCOC(CC)Nc1nc(OCc2ccc(F)cc2)ncc1F (stereo not shown) [Compound 227] | 76 to 100 | 76 to 100 | 76 to 100 | 76 to 100
COc1ccccc1COc1ncc(F)c(NSc2ccccc2[N+](=O)[O-])n1 [Compound 230] | 76 to 100 | 76 to 100 | 0 to 25 | 0 to 25
O=C(Nc1ccccc1F)Nc1nc(OCc2cccc(F)c2)ncc1F [Compound 231] | 0 to 25 | 0 to 25 | 0 to 25 | 0 to 25
Cc1ccc(COc2ncc(F)c(N)n2)cc1F [Compound 232] | 76 to 100 | 76 to 100 | 76 to 100 | 76 to 100
CN(C)/C=N/c1nc(OC(=O)c2c(Cl)cccc2Cl)ncc1F [Compound 234] | 76 to 100 | 76 to 100 | 76 to 100 | 76 to 100
ON(Cc1ccccc1)c1nc(OCc2ccc(F)cc2)ncc1F [Compound 235] | 76 to 100 | 76 to 100 | 51 to 75 | 76 to 100
CNc1nc(OCc2cccs2)ncc1F [Compound 237] | 0 to 25 | 0 to 25 | 0 to 25 | 0 to 25
CCC(Nc1nc(OCc2ccc(F)cc2)ncc1F)Nc1nc(OCc2ccc(F)cc2)ncc1F [Compound 238] | 0 to 25 | 51 to 75 | 0 to 25 | 26 to 50
